Test results as given in article PMC9292215 (Clinical Pharmacology and Therapeutics, 2021).
Marks after values point to notes of the source that are not given here.

Experiments:
[1] = Phase I SAD/FI/MAD study: adverse events; format: in vivo, human
[2] = Plasma pharmacokinetics of BIA 10-2474 and metabolites; format: in vivo, human; details: for Cmax / Tmax / AUC(0-inf) / AUC(0-t) / clearance / half-life: both, human, plasma, oral; for AUC(0-t): AUC0–t; for clearance: CL
[3] = MAD 50 mg, moderate, serious, participant with fatal outcome

For `CN(C(=O)n1cnc(-c2ccc[n+]([O-])c2)c1)C1CCCCC1` [BIA 10-2474, 3-(1-(cyclohexyl(methyl)carbamoyl)-1H-imidazol-4-yl)pyridine 1-oxide], which “Any AE, n (%)” value ([1]; 2.5 mg once daily 10 days, N = 6) is on record?
The value was 1 (16.7%).

What about the “Any AE, n (%)” value ([1]; 5 mg once daily 10 days, N = 6) of the same compound?
The value was 1 (16.7%).

And the “Any AE, n (%)” value ([1]; 10 mg once daily 10 days, N = 6)?
Its value is 3 (50%).

And the “duration of blurred vision” value ([1]; 10 mg/day, mild)?
The value was under 2.5 h.

And the “participants with blurred vision” value ([1]; 10 mg/day, two participants)?
Its value is 2.3%.

What about the “Any AE, n (%)” value ([1]; 20 mg once daily 10 days, N = 6) of the same compound?
The value was 4 (66.7%).

What about the “Abdominal pain, No. events” value ([1]; MAD 50 mg) of the same compound?
Its value is 1.

And the “Asthenia, No. events” value ([1]; MAD 50 mg)?
Its value is 1.

What about the “Blurred vision, No. events” value ([1]; MAD 50 mg) of the same compound?
Its value is 1.

What about the “Diarrhea, No. events” value ([1]; MAD 50 mg) of the same compound?
Its value is 2.

And the “Dizziness, No. events” value ([1]; MAD 50 mg)?
Its value is 2.

What about the “Nausea, No. events” value ([1]; MAD 50 mg) of the same compound?
The value was 1.

And the “Headache, No. events” value ([1]; MAD 50 mg, 3 moderate)?
The value was 2 + 3^#.

And the “Hot Flush, No. events” value ([1]; MAD 50 mg, moderate)?
Its value is 1^#.

And the “Soft feces, No. events” value ([1]; MAD 50 mg, moderate)?
The value was 1^#.

What about the “Diplopia, No. events” value ([1]; MAD 50 mg, moderate, serious) of the same compound?
Its value is 1^#§.

What about the “Transient global amnesia, No. events” value ([1]; MAD 50 mg, moderate, serious) of the same compound?
The value was 1^#§.

And the “Dysarthria, No. events” value [1, 3]?
The value was 1^#§&.

What about the “Feeling drunk, No. events” value [1, 3] of the same compound?
Its value is 1^#§&.

And the “Vitreous floaters, No. events” value ([1]; MAD 50 mg, serious)?
Its value is 1^§*.

What about the “Hemiparesis, No. events” value ([1]; MAD 50 mg, severe, serious) of the same compound?
Its value is 1^£§.

And the “Nervous system disorder, No. events” value ([1]; MAD 50 mg, severe, serious, hospitalization)?
The value was 1^£§H.

What about the “participants reporting treatment-emergent adverse effects” value ([1]; any dose of BIA 10-2474, 15 participants) of the same compound?
Its value is 17.9%.

What about the “participants with CNS (serious) adverse events” value ([1]; repeated 50 mg (up to day 5), one with fatal outcome) of the same compound?
Its value is “five of six”.

And the participants with headache ([1]; single 40 mg, 10 and 20 mg/day for 10 days, three participants)?
Its participants with headache is 3.6%.

And the “Any AE, n (%)” value ([1]; single dose 0.25 mg, N = 6)?
Its value is 0.

What about the “Any AE, n (%)” value ([1]; single dose 1.25 mg, N = 6) of the same compound?
The value was 0.

What about the “Any AE, n (%)” value ([1]; single dose 2.5 mg, N = 6) of the same compound?
The value was 1 (16.7%).

And the “Any AE, n (%)” value ([1]; single dose 5 mg, N = 6)?
The value was 0.

And the “Any AE, n (%)” value ([1]; single dose 10 mg, N = 6)?
Its value is 1 (16.7%).

And the “Any AE, n (%)” value ([1]; single dose 20 mg, N = 6)?
The value was 0.

What about the “Any AE, n (%)” value ([1]; single dose 40 mg (SAD and FI combined), N = 18) of the same compound?
Its value is 5 (27.8%).

What about the “Any AE, n (%)” value ([1]; single dose 100 mg, N = 6) of the same compound?
The value was 1 (16.7%).

And the tolerability ([1]; up to 100 mg single dose and up to 20 mg once daily for 10 days)?
Its tolerability is “well tolerated”.

And the V/F ([2]; 2.5 mg once daily, Day 1)?
Its V/F is 56.1 (18.7) L.

And the Racc ([2]; 2.5 mg once daily, Day 10)?
The Racc was 1.15.

What about the V/F ([2]; 2.5 mg once daily, Day 10) of the same compound?
The V/F was 57.0 (26.0) L.

What about the V/F ([2]; 5 mg once daily, Day 1) of the same compound?
Its V/F is 63.2 (20.4) L.

And the Racc ([2]; 5 mg once daily, Day 10)?
Its Racc is 1.31.

What about the V/F ([2]; 5 mg once daily, Day 10) of the same compound?
The V/F was 65.3 (17.4) L.

And the V/F ([2]; 10 mg once daily, Day 1)?
Its V/F is 69.0 (22.8) L.

And the Racc ([2]; 10 mg once daily, Day 10)?
Its Racc is 1.59.

What about the V/F ([2]; 10 mg once daily, Day 10) of the same compound?
The V/F was 61.4 (17.9) L.

What about the V/F ([2]; 20 mg once daily, Day 1) of the same compound?
Its V/F is 66.3 (7.34) L.

What about the Racc ([2]; 20 mg once daily, Day 10) of the same compound?
The Racc was 1.57.

What about the V/F ([2]; 20 mg once daily, Day 10) of the same compound?
Its V/F is 64.1 (15.4) L.

And the V/F ([2]; 50 mg once daily, Day 1)?
Its V/F is 67.9 (9.78) L.

And the “accumulation ratio, based on AUC0–24h” value ([2]; Day 10)?
The value was under 2.

And the “Overall fold increase in AUC0–τ” value ([2]; MAD Day 1)?
The value was 19.6.

And the “Overall fold increase in Cmax” value ([2]; MAD Day 1)?
Its value is 14.5.

What about the “Fold increase in AUC0–τ” value ([2]; MAD Day 1, 2.5 to 5 mg) of the same compound?
The value was 1.8.

What about the “Fold increase in Cmax” value ([2]; MAD Day 1, 2.5 to 5 mg) of the same compound?
The value was 1.7.

What about the “Fold increase in AUC0–τ” value ([2]; MAD Day 1, 5 to 10 mg) of the same compound?
Its value is 2.0.

And the “Fold increase in Cmax” value ([2]; MAD Day 1, 5 to 10 mg)?
The value was 1.9.

And the “Fold increase in AUC0–τ” value ([2]; MAD Day 1, 10 to 20 mg)?
Its value is 2.1.

What about the “Fold increase in Cmax” value ([2]; MAD Day 1, 10 to 20 mg) of the same compound?
Its value is 2.0.

And the “Fold increase in AUC0–τ” value ([2]; MAD Day 1, 20 to 50 mg)?
Its value is 2.6.

What about the “Fold increase in Cmax” value ([2]; MAD Day 1, 20 to 50 mg) of the same compound?
Its value is 2.3.

What about the “Overall fold increase in AUC0–τ” value ([2]; MAD Day 10) of the same compound?
Its value is 8.84.

What about the “Overall fold increase in Cmax” value ([2]; MAD Day 10) of the same compound?
Its value is 7.53.

And the “Fold increase in AUC0–τ” value ([2]; MAD Day 10, 2.5 to 5 mg)?
Its value is 1.7.

And the “Fold increase in Cmax” value ([2]; MAD Day 10, 2.5 to 5 mg)?
Its value is 1.6.

And the “Fold increase in AUC0–τ” value ([2]; MAD Day 10, 5 to 10 mg)?
The value was 2.4.

What about the “Fold increase in Cmax” value ([2]; MAD Day 10, 5 to 10 mg) of the same compound?
The value was 2.2.

What about the “Fold increase in AUC0–τ” value ([2]; MAD Day 10, 10 to 20 mg) of the same compound?
The value was 2.1.

What about the “Fold increase in Cmax” value ([2]; MAD Day 10, 10 to 20 mg) of the same compound?
The value was 2.1.

And the “Fold increase in Cmax” value ([2]; SAD, 1.25 to 2.5 mg)?
Its value is 1.9.

And the “Fold increase in AUC0–t” value ([2]; SAD, 2.5 to 5 mg)?
Its value is 2.4.

What about the “Fold increase in Cmax” value ([2]; SAD, 2.5 to 5 mg) of the same compound?
The value was 2.7.

What about the “Fold increase in AUC0–t” value ([2]; SAD, 5 to 10 mg) of the same compound?
The value was 2.1.

And the “Fold increase in Cmax” value ([2]; SAD, 5 to 10 mg)?
The value was 1.7.

What about the “Fold increase in AUC0–t” value ([2]; SAD, 10 to 20 mg) of the same compound?
Its value is 2.8.

And the “Fold increase in Cmax” value ([2]; SAD, 10 to 20 mg)?
Its value is 2.1.

And the “Fold increase in AUC0–t” value ([2]; SAD, 20 to 40 mg)?
Its value is 2.2.

What about the “Fold increase in Cmax” value ([2]; SAD, 20 to 40 mg) of the same compound?
Its value is 2.6.

What about the “Fold increase in AUC0–t” value ([2]; SAD, 40 to 100 mg) of the same compound?
The value was 2.6.

What about the “Fold increase in Cmax” value ([2]; SAD, 40 to 100 mg) of the same compound?
Its value is 2.2.

And the “Overall fold increase in AUC0–t” value ([2]; SAD, over the dosage range)?
Its value is 19.6.

What about the Cmax ([2]; 0.25 mg, single dose 0.25 mg) of the same compound?
The Cmax was 3.1 ng/mL.

And the Tmax ([2]; 0.25 mg, single dose 0.25 mg)?
Its Tmax is 2 h.

And the AUC(0-inf) ([2]; 1.25 mg)?
Its AUC(0-inf) is 142 ng·h/mL.

What about the AUC(0-t) ([2]; 1.25 mg, single dose 1.25 mg) of the same compound?
The AUC(0-t) was 98 ng·h/mL.

And the clearance ([2]; 1.25 mg, single dose 1.25 mg)?
Its clearance is 155 mL/min.

And the Cmax ([2]; 1.25 mg, single dose 1.25 mg)?
Its Cmax is 16.2 ng/mL.

What about the half-life ([2]; 1.25 mg, t1/2, single dose 1.25 mg) of the same compound?
Its half-life is 6.54 h.

And the Tmax ([2]; 1.25 mg, single dose 1.25 mg)?
The Tmax was 1.5 h.

What about the AUC(0-inf) ([2]; 2.5 mg) of the same compound?
The AUC(0-inf) was 338 ng·h/mL.

What about the AUC(0-t) ([2]; 2.5 mg, single dose 2.5 mg) of the same compound?
The AUC(0-t) was 289 ng·h/mL.

And the clearance ([2]; 2.5 mg, single dose 2.5 mg)?
The clearance was 131 mL/min.

What about the Cmax ([2]; 2.5 mg, single dose 2.5 mg) of the same compound?
Its Cmax is 31.2 ng/mL.

And the half-life ([2]; 2.5 mg, t1/2, single dose 2.5 mg)?
Its half-life is 7.04 h.

And the Tmax ([2]; 2.5 mg, single dose 2.5 mg)?
The Tmax was 1.5 h.
